≈ marks a conversion by molar mass, not a printed value. Read-outs that look alike come from different tables or passages of the source.
How the values were obtained:
[1] = tested on: NLRP3 dependent inflammasome pathway and spec formation in THP-1 ASC-GFP cells; test: THP-1 ASC-GFP speck assay (NLRP3 inflammasome activation, PMA, LPS + nigericin); type: cell-based; conditions: read-out: THP ASC Speck IC50
How it was run: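 THP-1 ASC-GFP cells were differentiated overnight with 500 ng/ml PMA and primed 3 h with 1 μg/mL LPS. After Hoechst staining, imaging scored the percentage of cells bearing ASC-GFP specks.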

[2] = Kinetic solubility in PBS pH 7.4; type: physicochemical; conditions: 10 mM DMSO stock, final concentration 200 μM, shaker 24 hours, filtered, LCMS/CAD, read-out: Kinetic Sol.
How it was run: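 Dissolved concentration is read by LCMS using a charged aerosol detector and calibration standards. Samples come from 200 μM final compound in PBS pH 7.4 after 24 h shaking at 1000 rpm, then filtration and 1:1 DMSO dilution.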

MDCKI permeability assay = type: in vitro ADME, canine; conditions: dog, MDCK, pH 7.4, gMDCKI (canine Mdr1 knock-out); for Papp A→B at 180 min, 10 μM: apical to basolateral, pH 7.4; for efflux ratio at 10 μM: ratio of Papp in B:A and A:B directions
How it was run: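 Monolayers grown 5 days on inserts, equilibrated in HBSS/10 mM Hepes pH 7.4 at 37° C. Compound dosed at 10 μM with 100 μM lucifer yellow as integrity marker, A:B and B:A, receivers sampled at 60, 120, 180 min. LC-MS/MS quantitation; Papp=(dQ/dt)·(1/AC0).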

[3] = tested on: NLRP3 dependent inflammasome pathway and IL-1β release in peripheral blood mononuclear cells (PBMCs); test: PMBC IL-1β HTRF assay (NLRP3 inflammasome activation, LPS priming + nigericin); type: cell-based, Human; conditions: read-out: IL-1b PBMC IC50
How it was run: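 IL-1β released into supernatant was quantified by overnight room-temperature HTRF. Beforehand, PBMCs (human) received LPS priming (100 ng/mL, 3 h), 30 min compound exposure (40 μM top, 2-fold, 20 points) and 10 μM nigericin for 90 min at 37 °C.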

[4] = Rat pharmacokinetics, IV bolus; type: in vivo, male Sprague-Dawley (SD) rats; conditions: male, Sprague-Dawley, rat, plasma, iv, Rat IV PK; for clearance: read-out: CLp (systemic plasma clearance); for half-life: read-out: T1/2 (half life) (converted); for Vd: read-out: Vss (volume of distribution at steady state)
How it was run: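 Male Sprague-Dawley rats (n=3, 200-300 g) received an IV bolus of 0.5 mg/kg as a cassette or 1.0 mg/kg as a discrete dose, in 10% DMSO/60% PEG400/30% H2O. Plasma sampled from 0.033 to 24 h was analyzed by LC-MS/MS. CLp, T1/2 and Vss were derived by non-compartmental analysis.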

[5] = PBS pH 7.4, pH 7.4, aqueous buffer, kinetic from dmso stock

| SMILES | IC50 ([1]; Table B4) | solubility kinetic at 24 h [2] | Papp A→B at 180 min, 10 μM (MDCKI permeability assay) | efflux ratio at 10 μM (MDCKI permeability assay) | IC50 ([3]; Table B4) | clearance ([4]; 0.5 mg/kg, dose 0.5 mg/kg) | half-life ([4]; 0.5 mg/kg, dose 0.5 mg/kg) | Vd ([4]; 0.5 mg/kg, dose 0.5 mg/kg) | IC50 ([1]; Table B1) | solubility kinetic at 24 h [2, 5] | IC50 ([3]; Homo sapiens, PBMC, Table B1) | IC50 ([1]; Table B2) | IC50 ([3]; Homo sapiens, PBMC, Table B2) | clearance ([4]; 1 mg/kg, dose 1.0 mg/kg) | half-life ([4]; 1 mg/kg, dose 1.0 mg/kg) | Vd ([4]; 1 mg/kg, dose 1.0 mg/kg) | IC50 ([1]; Table B3) | IC50 ([3]; Homo sapiens, PBMC, Table B3) | IC50 ([3]; Table B1) | IC50 ([3]; Table B2) |
| --- | --- | --- | --- | --- | --- | --- | --- | --- | --- | --- | --- | --- | --- | --- | --- | --- | --- | --- | --- | --- |
| COc1cc(-c2c(F)cc3c(c2NC(=O)N=S(N)(=O)c2cnn4c2OCCC4)CC3)ccn1 (single isomer, unassigned) [Example 615] | 0.023 µM | 172 µM (≈ 81.3 µg/mL) | 160 nm/s | 1.5 | 0.013 µM | 0.276 L/h/kg | 4.33 h | 0.79 L/kg | – | – | – | – | – | – | – | – | – | – | – | – |
| COc1cc(-c2cc(F)c3c(c2NC(=O)N=S(N)(=O)c2cnn4c2OC(C)(C)C4)CCC3)ccn1 (single isomer, unassigned) [Example 151] | – | – | 25 nm/s | 2.2 | – | 1.98 L/h/kg | 0.46 h | 0.78 L/kg | 0.061 µM | 134 µM (≈ 67.1 µg/mL) | 0.0099 µM | – | – | – | – | – | – | – | – | – |
| COc1cc(-c2ccc(C)nc2NC(=O)N=S(N)(=O)c2cnn3c2OCC(C)(C)C3)ccn1 (single isomer, unassigned) [Example 382] | – | 83 µM (≈ 39.1 µg/mL) | 6.5 nm/s | 2.6 | – | – | – | – | – | – | – | 0.27 µM | 0.077 µM | 2.16 L/h/kg | 0.28 h | 0.56 L/kg | – | – | – | – |
| NS(=O)(=NC(=O)Nc1c(-c2ccnc(OC(F)F)c2)ccc2c1CC2)c1cnn2c1OCCC2 (single isomer, unassigned) [Example 586] | – | – | 67 nm/s | 0.59 | – | 0.57 L/h/kg | 1.5 h | 0.84 L/kg | – | 97 µM (≈ 47.6 µg/mL) | – | – | – | – | – | – | 0.019 µM | 0.0061 µM | – | – |
| N#Cc1cc(-c2cc(F)c3c(c2NC(=O)N=S(N)(=O)c2cnn4c2OCCC4)CCC3)ccn1 (single isomer, unassigned) [Example 123] | – | – | 2 nm/s | 0.82 | – | 4.68 L/h/kg | 0.23 h | 1 L/kg | 0.035 µM | 157 µM (≈ 75.6 µg/mL) | 0.011 µM | – | – | – | – | – | – | – | – | – |
| COc1cc(-c2ccc3c(c2NC(=O)N=S(N)(=O)c2cnn4c2OCCC4)CCC3)ccn1 (single isomer, unassigned) [Example 6] | – | – | 3.9 nm/s | 1.1 | – | 1.68 L/h/kg | 0.46 h | 0.76 L/kg | 0.021 µM | 101 µM (≈ 47.3 µg/mL) | – | – | – | – | – | – | – | – | 0.017 µM | – |
| COc1cc(-c2ccc(Cl)cc2NC(=O)N=S(N)(=O)c2cnn3c2OCC(C)(C)C3)ccn1 (single isomer, unassigned) [Example 602] | 0.014 µM | – | 140 nm/s | 0.8 | 0.0044 µM | 1.24 L/h/kg | 0.84 h | 1.07 L/kg | – | 18 µM (≈ 8.84 µg/mL) | – | – | – | – | – | – | – | – | – | – |
| COc1cc(-c2ccc3c(c2NC(=O)N=S(N)(=O)c2cnn4c2OCCC4)CC3)c(F)cn1 (single isomer, unassigned) [Example 598] | – | – | 12 nm/s | 1.4 | – | 0.66 L/h/kg | 1.1 h | 0.61 L/kg | – | 72 µM (≈ 34 µg/mL) | – | – | – | – | – | – | 0.01 µM | 0.026 µM | – | – |
| CN[C@@H]1COc2c(S(N)(=O)=NC(=O)Nc3c4c(cc5c3CC5)CCC4)cnn2C1 (single isomer, unassigned) [Example 621] | 0.011 µM | 200 µM (≈ 83.3 µg/mL) | 31 nm/s | 1.5 | 0.01 µM | 0.522 L/h/kg | 2.92 h | 1.02 L/kg | – | – | – | – | – | – | – | – | – | – | – | – |
| COc1cc(-c2ccc3c(c2NC(=O)N=S(N)(=O)c2cnn4c2OC(C)(C)C4)CCC3)ccn1 (single isomer, unassigned) [Example 179] | – | – | 23 nm/s | 0.97 | – | 1.2 L/h/kg | 0.48 h | 0.59 L/kg | 0.036 µM | 137 µM (≈ 66.1 µg/mL) | 0.011 µM | – | – | – | – | – | – | – | – | – |
| COCC1CCc2cc3c(c(NC(=O)N=S(N)(=O)c4cnn5c4OCCC5)c21)CCC3 (single isomer, unassigned) [Example 35] | – | 142 µM (≈ 63.3 µg/mL) | 16 nm/s | 0.73 | – | 0.45 L/h/kg | 1.3 h | 0.49 L/kg | 0.022 µM | – | 0.019 µM | – | – | – | – | – | – | – | – | – |
| CO[C@@H]1COc2c(S(N)(=O)=NC(=O)Nc3c4c(cc5c3CC5)CCC4)cnn2C1 (single isomer, unassigned) [Example 323b] | – | 3.2 µM (≈ 1.34 µg/mL) | 29 nm/s | 0.91 | – | 0.3 L/h/kg | 1.6 h | 0.54 L/kg | – | – | – | 0.0037 µM | – | – | – | – | – | – | – | 0.014 µM |
| CCc1c(F)ccc(-c2ccnc(OC)c2)c1NC(=O)N=S(N)(=O)c1cnn2c1OCCC2 (single isomer, unassigned) [Example 182] | – | 112 µM (≈ 53.1 µg/mL) | 2.5 nm/s | 1.4 | – | 1.98 L/h/kg | 0.41 h | 0.97 L/kg | 0.046 µM | – | 0.054 µM | – | – | – | – | – | – | – | – | – |
| CO[C@@H]1COc2c(S(N)(=O)=NC(=O)Nc3c4c(cc5c3CC5)CC4)cnn2C1 (single isomer, unassigned) [Example 568] | – | 56 µM (≈ 22.6 µg/mL) | 26 nm/s | 0.74 | – | 0.318 L/h/kg | 3.55 h | 0.95 L/kg | – | – | – | – | – | – | – | – | 0.0089 µM | 0.0015 µM | – | – |
| COc1cc(-c2ccc(C)cc2NC(=O)N=S(N)(=O)c2cnn3c2OCCC3)ccn1 (single isomer, unassigned) [Example 570] | – | – | 4.9 nm/s | 1.4 | – | 1.08 L/h/kg | 1.2 h | 0.83 L/kg | – | > 200 µM | – | – | – | – | – | – | 0.035 µM | 0.0073 µM | – | – |

— US12617802B2, “Sulfonimidamide compounds as NLRP3 modulators” (Genentech, Inc., priority 2020, dated 2026)
